The term inhibition denotes the share of the control response that was lost under treatment. As a reminder, the EC50 is the concentration at which the effect is half-maximal. Usually IC50 stands for the midpoint of a concentration-inhibition curve.

The record followed here is ChEMBL document CHEMBL1131402, “Potent piperazine hydroxyethylamine HIV protease inhibitors containing novel P3 ligands” (Bioorg Med Chem Lett, 1998).

The target in assay [1] is Human immunodeficiency virus type 1 protease (Human immunodeficiency virus 1) (UniProt Q72874). Description: Inhibition of HIV protease at 0.5 nM.
In assay [2] the test system is Human immunodeficiency virus 1. Description: Antiviral activity was assessed against M36M/I, I54I/V, V82F/A/S/T viral strains isolated from patient-313 pretreated with ritonavir(3 fold) at 85th day. Type of assay: functional, organism-based.
The test system of assay [3] is Human immunodeficiency virus 1. Nature of the assay: Antiviral activity was assessed against M36M/I, V82F viral strains isolated from patient-313 pretreated with ritonavir(3 fold) at 57th day. Type of assay: functional, organism-based.
Assay [4] concerns Human immunodeficiency virus 1. Nature of the assay: Antiviral activity was assessed against K20K/R, 36M/I, 154V, A71A/V, V82T viral strains isolated from patient-129 pretreated with ritonavir(7 fold) at 16th week. Type of assay: functional, organism-based.
The test system of assay [5] is Human immunodeficiency virus 1. Nature of the assay: Antiviral activity was assessed against M36I, I54V, A71V, V82T viral strains isolated from patient-129 pretreated with ritonavir(2 fold) at 8th week. Type of assay: functional, organism-based.
The subject of assay [6] is Human immunodeficiency virus 1. Nature of the assay: Anti-HIV activity was determined in MT-4 cells in the presence of 0% human serum using cytopathic effect assay. The format is functional, organism-based. As to conditions: Human immunodeficiency virus 1, MT4. Background: Protection from cytopathic effect is a common read-out in antiviral testing.
The subject of a further assay is MT4. Description: Cytotoxicity against MT-4 cells was determined by using cytopathic effect assay. Type of assay: functional, Homo sapiens.
Assay [7] deals with Human immunodeficiency virus 1. Nature of the assay: Antiviral activity was assessed against K20K/R, M36M/I, 154V/I, L63L/P, V82/A viral strains isolated from patient-131 pretreated with ritonavir(7 fold) at 28th week. Type of assay: functional, organism-based.
A further assay has as its target Cytochrome P450 3A4 (Homo sapiens, UniProt P08684). Description: […] inhibition of human liver microsomal Cytochrome P450 3A4. The format is ADME. On the technique in general: Liver microsomes are a subcellular fraction often used to study metabolism.
For assay [8], the system named is Human immunodeficiency virus 1. Nature of the assay: Antiviral activity was assessed against I54I/V, A71V, V82A, L90L/M viral strains isolated from patient-235 pretreated with ritonavir (2 fold) at 36th week. Type of assay: functional, organism-based.
Assay [9] relates to Human immunodeficiency virus 1. Nature of the assay: Anti-HIV activity was determined in MT-4 cells in the presence of 50% human serum using cytopathic effect assay. The format is functional, organism-based. As to conditions: Human immunodeficiency virus 1, MT4, Serum.

Sequence of Cytochrome P450 3A4 (P08684 whole entry): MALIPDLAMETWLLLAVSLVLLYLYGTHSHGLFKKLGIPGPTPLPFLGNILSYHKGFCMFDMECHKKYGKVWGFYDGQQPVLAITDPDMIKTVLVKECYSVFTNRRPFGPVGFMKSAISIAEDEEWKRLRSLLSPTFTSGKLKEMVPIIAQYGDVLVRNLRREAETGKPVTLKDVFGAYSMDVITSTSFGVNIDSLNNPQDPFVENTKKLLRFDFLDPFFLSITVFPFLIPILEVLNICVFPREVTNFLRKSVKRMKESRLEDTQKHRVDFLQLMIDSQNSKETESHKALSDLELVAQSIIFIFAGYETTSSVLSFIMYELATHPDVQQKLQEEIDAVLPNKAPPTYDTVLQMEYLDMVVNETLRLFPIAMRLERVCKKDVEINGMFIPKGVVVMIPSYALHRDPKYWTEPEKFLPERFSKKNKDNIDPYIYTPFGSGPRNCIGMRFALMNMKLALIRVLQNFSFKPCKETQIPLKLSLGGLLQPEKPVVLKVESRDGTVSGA

Compound `CC(C)c1nc(COC(=O)N[C@H](C(=O)N[C@@H](Cc2ccccc2)[C@H](O)CN2CCN(Cc3ccc4c(c3)OCO4)C[C@H]2C(=O)NC(C)(C)C)C(C)C)cs1` displayed an inhibition in assay [1] of 60%. The EC50 turned out to be 27 nM in assay [2]; 24 nM in assay [3]; 33 nM in assay [4]; 10 nM in [5]; 7 nM in assay [6]; 29 nM in assay [7]. Moreover, the EC50 in assay [8] is 24 nM; in assay [9], 40 nM. Also, in the assay on MT4, the CCIC50 worked out at 13 µM. Also, on Cytochrome P450 3A4, it took 9600 nM to reach half-maximal inhibition (IC50).
